Data: ChEMBL document CHEMBL5126503, “Renieramycin-type alkaloids from marine-derived organisms: Synthetic chemistry, biological activity and structural modification” (Eur J Med Chem, 2021)
≈ marks a conversion by molar mass, not a printed value.

How the values were obtained:
T47D = experiment: Cytotoxicity against human T47D cells assessed as cell growth inhibition; assay type: functional, cell-based
HCT-116 [1] = experiment: Cytotoxicity against human HCT-116 cells assessed as cell growth inhibition; assay type: functional, cell-based
QG-56 [2] = experiment: Cytotoxicity against human QG-56 cells assessed as cell growth inhibition; assay type: functional, cell-based
ASPC1 = experiment: Cytotoxicity against human ASPC1 cells assessed as cell growth inhibition; assay type: functional, cell-based
DU-145 [3] = experiment: Cytotoxicity against human DU-145 cells assessed as cell growth inhibition incubated for 4 days by Cell counting kit-8 assay; assay type: functional, cell-based; details: DU-145, 96 h
HCT-116 [4] = experiment: Cytotoxicity against human HCT-116 cells assessed as cell growth inhibition incubated for 4 days by Cell counting kit-8 assay; assay type: functional, cell-based; details: HCT-116, 96 h
QG-56 [5] = experiment: Cytotoxicity against human QG-56 cells assessed as cell growth inhibition incubated for 4 days by Cell counting kit-8 assay; assay type: functional, cell-based; details: QG-56, 96 h
DU-145 [6] = experiment: Cytotoxicity against human DU-145 cells assessed as cell growth inhibition; assay type: functional, cell-based
A549 [7] = experiment: Cytotoxicity against human A549 cells assessed as cell growth inhibition; assay type: functional, cell-based
HL-60 [8] = experiment: Cytotoxicity against human HL-60 cells assessed as cell growth inhibition; assay type: functional, cell-based
HL-60 [9] = experiment: Cytotoxicity against human HL-60 cells assessed as cell growth inhibition by MTT assay; assay type: functional, cell-based
A549 [10] = experiment: Cytotoxicity against human A549 cells assessed as cell growth inhibition by SRB assay; assay type: functional, cell-based
[11] = Cytotoxicity against human HEK293 cells assessed as cell growth inhibition; assay type: toxicity, cell-based
Leishmania amazonensis = experiment: Antileishmanial activity against Leishmania amazonensis promastigotes assessed as reduction on parasite growth by green fluorescent protein based microplate reader assay; assay type: functional, organism-based
NCI-H292 = experiment: Antiproliferative activity against human NCI-H292 cells assessed as cell growth inhibition incubated for 4 hrs by MTT assay; assay type: functional, cell-based; details: NCI-H292, 4 h

C/C=C(/C)C(=O)OC[C@H]1c2c(c(OC(C)=O)c(C)c3c2OCO3)C[C@H]2[C@H]3C4=C(C[C@@H]([C@H](C#N)N12)N3C)C(=O)C(C)=C(OC)C4=O gave an IC50 (T47D) of 10 nM, an IC50 (HCT-116 [1]) of 34 nM and an IC50 (QG-56 [2]) of 79 nM. The IC50 (ASPC1) was 120 nM.

With COC1=C(C)C(=O)C2=C(C1=O)[C@H](CO)N1[C@@H](C#N)[C@@H]3C(=O)c4c(O)c(C)c(OC)c(O)c4[C@H]([C@@H]1C2)N3C the IC50 (DU-145 [3]) was 448 nM, the IC50 (HCT-116 [4]) was 448 nM and the IC50 (QG-56 [5]) was 448 nM.

With COC1=C(C)C(=O)C2=C(C1=O)[C@H](COC(C)=O)N1[C@@H](C2)CN(C)C[C@@H]1C#N the IC50 (HCT-116 [1]) was 54 nM, the IC50 (QG-56 [2]) was 220 nM and the IC50 (DU-145 [6]) was 990 nM.

Molecule C/C=C(/C)C(=O)OC[C@H]1C2=C(C[C@H]3[C@H]4C5=C(C(=O)C(C)=C(OC)C5=O)[C@H](O)[C@@H]([C@H](CC(C)=O)N13)N4C)C(=O)C(C)=C(O)C2=O has an IC50 (A549 [7]) of over 100000 nM and an IC50 (HL-60 [8]) of over 100000 nM.

With C/C=C(/C)C(=O)OC[C@H]1C2=C(C[C@H]3[C@H]4C5=C(C(=O)C(C)=C(OC)C5=O)[C@H](OCC)[C@@H]([C@H](CC(C)=O)N13)N4C)C(=O)C(C)=C(O)C2=O the IC50 (A549 [7]) was over 100000 nM and the IC50 (HL-60 [8]) was over 100000 nM.

With C/C=C(/C)C(=O)OC[C@H]1C2=C(C[C@H]3[C@H]4C5=C(C[C@@H]([C@H](CC(C)=O)N13)N4C)C(=O)C(C)=C(OC)C5=O)C(=O)C(C)=C(OC)C2=O the IC50 (HL-60 [9]) was over 100000 nM, the IC50 (A549 [10]) was over 100000 nM and the IC50 [11] was 7100 nM.

Molecule COC1=C(C)C(=O)C2=C(C1=O)[C@H]1CN(Cc3ccccc3)[C@@H](C#N)[C@H](C2)N1C has an IC50 (HCT-116 [4]) of 17 nM and an IC50 (QG-56 [5]) of 17 nM.

For COC1=C(C)C(=O)C2=C(C1=O)[C@@H]1[C@@H]3CC4=C(C(=O)C(OC)=C(C)C4=O)[C@H](CO)N3[C@@H](CC(C)=O)[C@H](C2=O)N1C, the IC50 [11] was 1000 nM, the IC50 (A549 [7]) was 6200 nM and the IC50 (HL-60 [8]) was 2500 nM.

For C/C=C(/C)C(=O)OC[C@H]1C2=C(C[C@H]3[C@H]4C5=C(C(=O)C(C)=C(OC)C5=O)[C@H](O)[C@@H](CN13)N4C)C(=O)C(C)=C(OC)C2=O, the IC50 (Leishmania amazonensis) was 0.2 µg/mL (≈ 0.353 µM).

In the case of COC1=C(C)C(=O)C2=C(C1=O)[C@@H]1[C@@H]3CC4=C(C(=O)C(OC)=C(C)C4=O)[C@H](COC(=O)CNC(=O)OC(C)(C)C)N3[C@@H](C#N)[C@H](C2)N1C, the IC50 (NCI-H292) is reported as 3.56 nM.

Molecule C/C=C(/C)C(=O)OC[C@H]1c2c(c(O)c(C)c3c2OCO3)C[C@H]2[C@H]3C4=C(C[C@@H]([C@H](C#N)N12)N3C)C(=O)C(C)=C(OC)C4=O has an IC50 (T47D) of 4.7 nM, an IC50 (HCT-116 [1]) of 39 nM and an IC50 (QG-56 [2]) of 77 nM. It also gave an IC50 (ASPC1) of 98 nM.
